Assay [1] has as its system MDA-MB-453 cell line (FGFR4-Y367C). The assay is described as follows: Cancer cell line cell viability assay (Cell Titer-Glo), 120 hr. In kind it is cell-based. The following applies: Homo sapiens. Put shortly: (§1)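 Cells seeded at 5,000-20,000/well, incubated overnight, then treated with a 9-dose, 4-fold dilution series from 3 μM in triplicate at 37° C, 5% CO2. Viability read by Cell Titer-Glo 2.0 luminescence as percent of DMSO control; IC50 from 4-parameter variable-slope sigmoidal fit.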

Another assay addresses T1, FGFR4 (Homo sapiens, UniProt P22455).
T1 construct: made in house; host or cells: E. coli (BL21-derived), T7 phage
The assay is described as follows: Kinase binding assay (kinase-tagged T7 phage, affinity beads, qPCR), Kd. The following applies: read-out: FGFR4 (Kd nM). Put shortly:
(§2)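 Readout was qPCR of kinase eluted from ligand-coated affinity beads after competition with test compound. Kinases were expressed as T7 phage fusions in E. coli. Binding constants were derived by non-linear least-squares Hill fitting, Hill slope −1.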

The target in a further assay is T2, FGFR3 (V555M) (Homo sapiens, UniProt P22607, V555M).
T2 construct: made in house; host or cells: E. coli (BL21-derived), T7 phage
T2 sequence (P22607 23-806 V555M): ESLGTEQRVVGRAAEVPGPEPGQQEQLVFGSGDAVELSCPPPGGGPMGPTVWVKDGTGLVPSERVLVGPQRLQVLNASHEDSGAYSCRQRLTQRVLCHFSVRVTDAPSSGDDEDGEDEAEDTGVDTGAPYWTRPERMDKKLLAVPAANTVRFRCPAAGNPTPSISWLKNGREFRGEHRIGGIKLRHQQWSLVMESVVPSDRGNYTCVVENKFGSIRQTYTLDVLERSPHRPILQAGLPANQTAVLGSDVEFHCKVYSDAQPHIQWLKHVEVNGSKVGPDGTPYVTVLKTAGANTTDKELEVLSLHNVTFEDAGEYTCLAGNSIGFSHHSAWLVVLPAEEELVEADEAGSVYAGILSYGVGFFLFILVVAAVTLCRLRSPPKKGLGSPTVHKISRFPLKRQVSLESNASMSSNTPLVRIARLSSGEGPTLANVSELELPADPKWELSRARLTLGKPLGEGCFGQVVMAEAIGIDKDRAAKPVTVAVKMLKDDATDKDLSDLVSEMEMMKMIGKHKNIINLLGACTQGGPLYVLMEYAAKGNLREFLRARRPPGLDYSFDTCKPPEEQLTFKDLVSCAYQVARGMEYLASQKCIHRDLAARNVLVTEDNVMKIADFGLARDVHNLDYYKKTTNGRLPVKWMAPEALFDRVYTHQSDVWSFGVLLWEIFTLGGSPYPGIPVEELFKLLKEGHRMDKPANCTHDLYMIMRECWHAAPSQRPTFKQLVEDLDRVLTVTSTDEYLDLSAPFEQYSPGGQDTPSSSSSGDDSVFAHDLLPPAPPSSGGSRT
The description is as above. The note with it: V555M mutant; read-out: FGFR3 (V555M) (Kd nM). In a few lines: as §2

The target in a further assay is T3, FGFR3 (Homo sapiens, UniProt P22607).
T3 construct: made in house; host or cells: E. coli (BL21-derived), T7 phage
T3 sequence (P22607 23-806): as the sequence (P22607 23-806 V555M) above, with M533V counted along it
Described as above. The note with it: read-out: FGFR3 (Kd nM). In a few lines:
as §2

For the next assay, the target named is T4, FGFR2 (Homo sapiens, UniProt P21802).
T4 construct: made in house; host or cells: E. coli (BL21-derived), T7 phage
T4 sequence (P21802 22-821): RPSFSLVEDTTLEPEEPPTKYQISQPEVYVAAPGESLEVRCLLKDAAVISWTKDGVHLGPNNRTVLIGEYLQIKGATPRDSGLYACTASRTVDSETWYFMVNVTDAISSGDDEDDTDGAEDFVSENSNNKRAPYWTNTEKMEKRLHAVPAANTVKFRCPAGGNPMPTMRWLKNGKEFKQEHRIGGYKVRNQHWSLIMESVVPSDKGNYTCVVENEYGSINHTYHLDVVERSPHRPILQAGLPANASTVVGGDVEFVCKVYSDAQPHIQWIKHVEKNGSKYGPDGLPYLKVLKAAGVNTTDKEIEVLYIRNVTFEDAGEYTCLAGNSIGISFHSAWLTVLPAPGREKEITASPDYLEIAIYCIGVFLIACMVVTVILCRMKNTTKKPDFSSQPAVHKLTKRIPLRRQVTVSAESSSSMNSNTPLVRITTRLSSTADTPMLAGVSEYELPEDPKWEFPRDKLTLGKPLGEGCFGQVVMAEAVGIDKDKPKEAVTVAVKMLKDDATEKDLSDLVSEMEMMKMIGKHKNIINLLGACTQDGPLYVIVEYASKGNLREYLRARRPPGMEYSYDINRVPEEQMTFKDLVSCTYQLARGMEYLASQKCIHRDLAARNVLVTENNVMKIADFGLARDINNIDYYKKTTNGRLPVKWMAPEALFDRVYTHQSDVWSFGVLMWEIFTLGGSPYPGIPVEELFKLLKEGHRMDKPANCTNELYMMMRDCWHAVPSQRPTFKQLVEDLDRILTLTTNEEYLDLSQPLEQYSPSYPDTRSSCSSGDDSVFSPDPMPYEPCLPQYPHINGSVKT
Described as above. The following applies: read-out: FGFR2 (Kd nM). Put shortly:
as §2

The next assay addresses T5, FGFR1 (Homo sapiens, UniProt P11362).
T5 construct: made in house; host or cells: E. coli (BL21-derived), T7 phage
The description is as above. The following applies: read-out: FGFR1 (Kd nM). In a few lines:
as §2

For assay [2], the system named is KATO-III cell line (FGFR2 amplification). The assay is described as follows: Cancer cell line cell viability assay (Cell Titer-Glo), 72 hr. In kind it is cell-based. The note with it: Homo sapiens, KATO III. In a few lines:
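5,000-20,000 cells/well o/n; cpd 9-pt 4x dil from 3 μM, n=3; 37° C/5% CO2; CTG 2.0 lumi; % DMSO ctrl; 4PL IC50.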

Assay [3] deals with RT112/84 cell line (FGFR3-fusion). The description is as above. In kind it is cell-based. The following applies: Homo sapiens, RT112/84, RT112/84 cell line (FGFR3-fusion). Put shortly:
as §1

Assay [4] concerns KG-1 cell line (FGFR 1-fusion). Described as above. In kind it is cell-based. The note with it: Homo sapiens, KG-1, KG-1 cell line (FGFR1-fusion). Put shortly: as §1

T5 sequence (P11362 22-822): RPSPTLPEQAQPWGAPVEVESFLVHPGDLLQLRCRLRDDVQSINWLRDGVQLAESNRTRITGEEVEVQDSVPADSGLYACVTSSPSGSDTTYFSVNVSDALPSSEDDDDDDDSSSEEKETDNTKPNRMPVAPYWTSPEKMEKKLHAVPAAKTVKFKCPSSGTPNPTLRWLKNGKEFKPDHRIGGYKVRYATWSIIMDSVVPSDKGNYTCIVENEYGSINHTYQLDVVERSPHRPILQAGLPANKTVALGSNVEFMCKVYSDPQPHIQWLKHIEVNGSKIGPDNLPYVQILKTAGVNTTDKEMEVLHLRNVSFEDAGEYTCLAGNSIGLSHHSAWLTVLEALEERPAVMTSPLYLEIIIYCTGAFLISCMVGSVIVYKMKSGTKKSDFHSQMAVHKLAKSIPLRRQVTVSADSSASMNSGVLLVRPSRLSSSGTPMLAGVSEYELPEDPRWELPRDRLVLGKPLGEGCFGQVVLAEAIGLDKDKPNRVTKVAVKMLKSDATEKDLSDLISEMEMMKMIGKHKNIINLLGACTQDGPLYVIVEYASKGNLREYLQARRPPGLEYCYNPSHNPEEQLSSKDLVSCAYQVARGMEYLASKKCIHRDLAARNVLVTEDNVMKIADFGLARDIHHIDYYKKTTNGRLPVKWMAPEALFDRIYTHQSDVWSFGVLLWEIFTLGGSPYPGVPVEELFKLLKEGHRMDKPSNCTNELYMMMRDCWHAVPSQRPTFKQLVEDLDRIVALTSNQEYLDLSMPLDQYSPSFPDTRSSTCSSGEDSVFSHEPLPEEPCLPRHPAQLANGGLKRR
T1 sequence (P22455 22-802): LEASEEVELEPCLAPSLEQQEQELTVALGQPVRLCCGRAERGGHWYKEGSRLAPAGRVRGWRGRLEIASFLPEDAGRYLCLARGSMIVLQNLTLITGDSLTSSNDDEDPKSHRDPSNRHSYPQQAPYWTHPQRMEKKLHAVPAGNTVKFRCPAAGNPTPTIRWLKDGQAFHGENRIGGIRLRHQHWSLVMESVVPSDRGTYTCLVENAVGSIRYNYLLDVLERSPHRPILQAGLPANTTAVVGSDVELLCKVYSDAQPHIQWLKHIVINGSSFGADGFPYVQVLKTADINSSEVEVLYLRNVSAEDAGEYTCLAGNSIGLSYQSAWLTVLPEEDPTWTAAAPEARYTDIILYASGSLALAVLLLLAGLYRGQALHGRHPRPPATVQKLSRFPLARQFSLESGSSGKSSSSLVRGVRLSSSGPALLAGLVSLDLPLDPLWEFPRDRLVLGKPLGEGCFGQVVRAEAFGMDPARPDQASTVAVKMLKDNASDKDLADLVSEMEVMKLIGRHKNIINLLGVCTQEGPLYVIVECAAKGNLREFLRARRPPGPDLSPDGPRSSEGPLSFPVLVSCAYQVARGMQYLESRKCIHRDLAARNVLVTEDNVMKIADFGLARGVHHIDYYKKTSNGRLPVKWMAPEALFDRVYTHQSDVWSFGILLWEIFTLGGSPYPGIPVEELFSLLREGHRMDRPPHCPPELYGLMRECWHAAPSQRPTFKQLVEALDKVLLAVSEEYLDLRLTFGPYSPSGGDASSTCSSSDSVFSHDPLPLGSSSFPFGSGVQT

For `CC(C)CNC1(C)CN(c2ccc(-c3n[nH]c4ccc(O[C@H](C)c5c(Cl)cncc5Cl)cc34)cn2)C1` [Example 224, (R)-1-(5-(5-(1-(3,5-dichloropyridin-4-yl)ethoxy)-1H-indazol-3-yl)pyridin-2-yl)-N-isobutyl-3-methylazetidin-3-amine], the IC50 in assay [1] was 50 to 200 nM; in assay [2] it was 0.1 to 50 nM; in assay [3], 0.1 to 50 nM; in [4] it was 50 to 200 nM. The Kd at FGFR4, at FGFR3 (V555M), at FGFR3, at FGFR2 and at FGFR1 was 1 to 50 nM throughout.
For the molecule `CC[C@@H](C)NC1(C)CN(c2ccc(-c3n[nH]c4ccc(O[C@H](C)c5c(Cl)cncc5Cl)cc34)cn2)C1` [Example 225, 1-[5-[5-[(1R)-1-(3,5-dichloro-4-pyridyl)ethoxy]-1H-indazol-3-yl]-2-pyridyl]-3-methyl-N-[(1R)-1-meth-ylpropyl]azetidin-3-amine], the IC50 in assay [1] lay within 50 to 200 nM; in assay [2] it was 0.1 to 50 nM; in assay [3] it was 0.1 to 50 nM; in assay [4], 50 to 200 nM. Besides, the Kd at FGFR4, on FGFR3 (V555M), at FGFR3, on FGFR2 and on FGFR1 was 1 to 50 nM in each case.
For `CCCNC1(C)CN(c2ccc(-c3n[nH]c4ccc(O[C@H](C)c5c(Cl)cncc5Cl)cc34)cn2)C1` [Example 227, 1-[5-[5-[(1R)-1-(3,5-dichloro-4-pyridyl)ethoxy]-1H-indazol-3-yl]-2-pyridyl]-3-methyl-N-propyl-azetidin-3-amine], the IC50 in assay [1] lay within 50 to 200 nM; in assay [2], 0.1 to 50 nM; in [3], 0.1 to 50 nM; in assay [4] it was 50 to 200 nM. Besides, the Kd on FGFR4, at FGFR3 (V555M), on FGFR3, on FGFR2 and at FGFR1 was 1 to 50 nM throughout.
In the case of `CC[C@H](C)NC1(C)CN(c2ccc(-c3n[nH]c4ccc(O[C@H](C)c5c(Cl)cncc5Cl)cc34)cn2)C1` [Example 228, 1-[5-[5-[(1R)-1-(3,5-dichloro-4-pyridyl)ethoxy]-1H-indazol-3-yl]-2-pyridyl]-3-methyl-N-[(1S)-1-meth-ylpropyl]azetidin-3-amine], the IC50 lay within 50 to 200 nM in assay [1], 0.1 to 50 nM in assay [2], 0.1 to 50 nM in [3] and 50 to 200 nM in assay [4]. Moreover, the Kd at FGFR4, on FGFR3 (V555M), at FGFR3, on FGFR2 and at FGFR1 was 1 to 50 nM throughout.
For `C[C@@H](Oc1ccc2[nH]nc(-c3ccc(N4CC(C)(N5C[C@@H]6C[C@H]5CO6)C4)nc3)c2c1)c1c(Cl)cncc1Cl` [Example 229, (1S,4S)-5-(1-(5-(5-((R)-1-(3,5-dichloropyridin-4-yl)ethoxy)-1H-indazol-3-yl)pyridin-2-yl)-3-methylazetidin-3-yl)-2-oxa-5-aza-bicyclo[2.2.1]hep-tane], the IC50 fell in the range of 50 to 200 nM in assay [1], 0.1 to 50 nM in assay [2], 0.1 to 50 nM in assay [3] and 50 to 200 nM in assay [4]. Moreover, the Kd at FGFR4, at FGFR3 (V555M), at FGFR3, at FGFR2 and on FGFR1 was 1 to 50 nM in each case.
For `C[C@@H](Oc1ccc2[nH]nc(-c3ccc(N4CC(C)(NCC5CC5)C4)nc3F)c2c1)c1c(Cl)cncc1Cl` [Example 237, (R)—N-(cyclopropylmethyl)-1-(5-(5-(1-(3,5-dichloropyridin-4-yl)ethoxy)-1H-indazol-3-yl)-6-fluoropyridin-2-yl)-3-methylazetidin-3-amine], the IC50 lay within 50 to 200 nM in [1], 0.1 to 50 nM in assay [2], 0.1 to 50 nM in [3] and 0.1 to 50 nM in assay [4]. Also, the Kd at FGFR4, on FGFR3 (V555M), on FGFR3, at FGFR2 and at FGFR1 was 1 to 50 nM each time.

Source of the values: patent US20250368666A1, “INDAZOLE COMPOUNDS” (TYRA BIOSCIENCES, INC., priority 2022, published 2025).
